Active and inactive are the calls of the source.
What was measured:
Phospholipase D1 = biological target: T1, Phospholipase D1 (Homo sapiens, UniProt Q13393); assay: PLD1 inhibitor potency in cells, dose response (AID 602151); assay type: functional;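 further: cellular PLD1 assay in Calu-1 cells stimulated with PMA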
T1 sequence (Q13393 whole entry): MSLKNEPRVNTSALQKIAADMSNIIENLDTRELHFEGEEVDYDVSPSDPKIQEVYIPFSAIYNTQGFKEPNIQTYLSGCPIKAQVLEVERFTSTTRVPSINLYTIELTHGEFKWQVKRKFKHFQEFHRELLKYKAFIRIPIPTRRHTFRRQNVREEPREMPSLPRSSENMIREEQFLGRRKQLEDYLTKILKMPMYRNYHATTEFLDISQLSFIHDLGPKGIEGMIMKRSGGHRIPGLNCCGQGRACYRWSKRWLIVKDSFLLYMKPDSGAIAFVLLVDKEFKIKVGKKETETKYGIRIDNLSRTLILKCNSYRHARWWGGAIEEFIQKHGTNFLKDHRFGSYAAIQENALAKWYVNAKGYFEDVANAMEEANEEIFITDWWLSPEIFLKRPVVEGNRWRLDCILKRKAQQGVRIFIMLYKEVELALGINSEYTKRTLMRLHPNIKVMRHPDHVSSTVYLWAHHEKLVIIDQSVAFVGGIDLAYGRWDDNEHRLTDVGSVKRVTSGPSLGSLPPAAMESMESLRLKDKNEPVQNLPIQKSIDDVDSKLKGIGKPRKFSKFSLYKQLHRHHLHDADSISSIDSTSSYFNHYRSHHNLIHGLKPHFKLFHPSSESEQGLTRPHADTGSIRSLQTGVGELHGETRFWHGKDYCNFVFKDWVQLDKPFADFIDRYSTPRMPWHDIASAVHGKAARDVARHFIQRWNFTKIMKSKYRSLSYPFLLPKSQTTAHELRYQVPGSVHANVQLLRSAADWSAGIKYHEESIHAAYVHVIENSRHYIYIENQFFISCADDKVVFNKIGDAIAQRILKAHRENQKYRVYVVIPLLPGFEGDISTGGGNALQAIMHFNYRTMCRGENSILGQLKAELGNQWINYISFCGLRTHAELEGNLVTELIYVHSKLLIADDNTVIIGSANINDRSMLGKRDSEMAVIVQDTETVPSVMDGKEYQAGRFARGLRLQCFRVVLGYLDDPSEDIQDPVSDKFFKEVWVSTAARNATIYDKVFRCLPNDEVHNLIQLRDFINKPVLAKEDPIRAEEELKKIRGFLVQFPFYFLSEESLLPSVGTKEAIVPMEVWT

Phospholipase D2 = Phospholipase D2 (Homo sapiens, UniProt O14939); assay: PLD2 inhibitor potency in cells, dose response (AID 602147); assay type: functional;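 further: cellular assay in HEK293 cells overexpressing GFP-tagged PLD2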
H4 = assay: Luminescence Cell-Based Dose Response HTS to Identify Activators of 5'UTR Stem-Loop Driven Prion Protein mRNA Translation in H4 Neuroglioblastoma Cells. [Related pubchem assays: 1829 (Project Summary), 1814 (Primary HTS)]; assay type: functional; conditions: Homo sapiens
Caspase-3 = biological target: T2, Caspase-3 (Homo sapiens, UniProt P42574); assay type: functional;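 further: Dose-response selectivity test against caspase-3 for candidate inhibitors of sentrin-specific proteases (SENPs)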
T2 sequence (P42574 whole entry): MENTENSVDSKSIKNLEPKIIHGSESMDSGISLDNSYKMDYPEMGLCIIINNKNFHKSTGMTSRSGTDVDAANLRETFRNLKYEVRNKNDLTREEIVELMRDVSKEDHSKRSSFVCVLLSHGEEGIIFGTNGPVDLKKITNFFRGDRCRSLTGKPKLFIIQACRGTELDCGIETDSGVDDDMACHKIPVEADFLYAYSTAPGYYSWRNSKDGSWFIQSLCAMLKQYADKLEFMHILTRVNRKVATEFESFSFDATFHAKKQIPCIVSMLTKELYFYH

[1] = Luminescence Cell-Based Dose Response HTS to Identify Activators of Luciferase Translation or Activity in H4 […] Cells. [Related pubchem assays: 1829 (Project Summary), 1814 (Primary HTS)]; assay type: functional
[2] = biological target: T3, Sentrin-specific protease 8 (Homo sapiens, UniProt Q96LD8); assay type: functional;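 further: luminescence read-out of SENP8 inhibition, dose-response confirmation following an ultra-high-throughput screen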
T3 sequence (Q96LD8 whole entry): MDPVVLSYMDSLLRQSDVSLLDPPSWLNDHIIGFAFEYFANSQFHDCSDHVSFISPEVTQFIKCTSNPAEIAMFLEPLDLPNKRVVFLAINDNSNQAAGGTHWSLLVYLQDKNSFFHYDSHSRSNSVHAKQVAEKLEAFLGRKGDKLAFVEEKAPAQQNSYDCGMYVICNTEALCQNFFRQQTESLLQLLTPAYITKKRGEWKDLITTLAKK

[3] = biological target: T4, Sentrin-specific protease 6 (Homo sapiens, UniProt Q9GZR1); assay type: functional;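 further: Luminescence-based dose-response confirmatory assay of SENP6 inhibition, following up an ultra-high-throughput screen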
T4 sequence (Q9GZR1 whole entry): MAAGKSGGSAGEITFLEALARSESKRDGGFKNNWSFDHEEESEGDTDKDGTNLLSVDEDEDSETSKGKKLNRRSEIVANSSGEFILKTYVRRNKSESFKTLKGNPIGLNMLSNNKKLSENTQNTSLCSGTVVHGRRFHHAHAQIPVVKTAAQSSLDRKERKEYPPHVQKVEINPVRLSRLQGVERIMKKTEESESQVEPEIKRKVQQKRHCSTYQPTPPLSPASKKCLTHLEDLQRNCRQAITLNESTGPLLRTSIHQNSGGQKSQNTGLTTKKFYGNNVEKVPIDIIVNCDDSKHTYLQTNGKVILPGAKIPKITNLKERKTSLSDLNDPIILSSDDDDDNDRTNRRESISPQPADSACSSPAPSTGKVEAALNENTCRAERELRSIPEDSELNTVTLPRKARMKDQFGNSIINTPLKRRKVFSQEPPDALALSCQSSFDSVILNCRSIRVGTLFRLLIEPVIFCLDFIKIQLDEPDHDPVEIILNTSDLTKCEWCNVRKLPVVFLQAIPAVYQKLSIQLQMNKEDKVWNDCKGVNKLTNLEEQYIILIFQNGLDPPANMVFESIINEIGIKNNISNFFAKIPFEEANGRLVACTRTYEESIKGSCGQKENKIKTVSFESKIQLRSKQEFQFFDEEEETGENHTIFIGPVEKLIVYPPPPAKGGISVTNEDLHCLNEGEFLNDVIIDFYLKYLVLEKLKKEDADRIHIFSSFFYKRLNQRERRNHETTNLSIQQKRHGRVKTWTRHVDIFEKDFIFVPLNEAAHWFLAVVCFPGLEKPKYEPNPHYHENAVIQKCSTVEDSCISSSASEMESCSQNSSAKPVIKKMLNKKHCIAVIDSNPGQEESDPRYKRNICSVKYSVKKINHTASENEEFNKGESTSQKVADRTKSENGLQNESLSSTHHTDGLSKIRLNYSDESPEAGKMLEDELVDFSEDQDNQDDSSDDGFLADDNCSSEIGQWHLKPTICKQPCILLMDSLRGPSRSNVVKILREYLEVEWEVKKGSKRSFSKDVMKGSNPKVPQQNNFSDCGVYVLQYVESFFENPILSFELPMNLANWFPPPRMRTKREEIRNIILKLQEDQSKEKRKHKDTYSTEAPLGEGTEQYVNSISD

[4] = biological target: T5, Sentrin-specific protease 7 (Homo sapiens, UniProt Q9BQF6); assay type: functional;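 further: Luminescence-based dose-response confirmation of ultra-high-throughput screening hits, measuring inhibition of SENP7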
T5 sequence (Q9BQF6 whole entry): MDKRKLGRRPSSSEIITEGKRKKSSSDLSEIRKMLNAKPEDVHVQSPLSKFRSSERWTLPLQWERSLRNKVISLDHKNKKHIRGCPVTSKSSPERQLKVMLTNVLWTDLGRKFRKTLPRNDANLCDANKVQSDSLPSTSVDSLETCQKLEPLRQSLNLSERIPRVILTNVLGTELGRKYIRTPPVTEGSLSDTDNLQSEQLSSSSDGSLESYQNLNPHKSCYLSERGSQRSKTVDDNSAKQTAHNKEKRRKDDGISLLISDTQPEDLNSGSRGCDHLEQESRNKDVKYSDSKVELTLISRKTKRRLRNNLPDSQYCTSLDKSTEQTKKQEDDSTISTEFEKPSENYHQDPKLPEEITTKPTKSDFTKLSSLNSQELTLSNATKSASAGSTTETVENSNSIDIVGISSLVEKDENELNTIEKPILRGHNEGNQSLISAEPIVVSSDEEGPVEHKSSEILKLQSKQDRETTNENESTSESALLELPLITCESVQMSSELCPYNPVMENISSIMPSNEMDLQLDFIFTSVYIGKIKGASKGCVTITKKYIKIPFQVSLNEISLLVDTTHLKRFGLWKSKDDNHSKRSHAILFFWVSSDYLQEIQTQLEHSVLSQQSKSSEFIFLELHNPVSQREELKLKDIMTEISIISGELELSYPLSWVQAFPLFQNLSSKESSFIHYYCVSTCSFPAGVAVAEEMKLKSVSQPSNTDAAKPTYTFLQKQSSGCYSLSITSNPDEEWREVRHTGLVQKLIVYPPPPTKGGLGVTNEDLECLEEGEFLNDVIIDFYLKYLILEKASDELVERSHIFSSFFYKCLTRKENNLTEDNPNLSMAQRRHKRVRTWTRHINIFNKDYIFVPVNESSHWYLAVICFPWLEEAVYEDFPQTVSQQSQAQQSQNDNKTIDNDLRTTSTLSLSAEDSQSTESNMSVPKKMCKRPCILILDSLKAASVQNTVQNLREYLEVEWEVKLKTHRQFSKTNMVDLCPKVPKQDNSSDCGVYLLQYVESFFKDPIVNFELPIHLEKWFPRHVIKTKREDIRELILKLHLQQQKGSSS

Aurora kinase A = biological target: T6, Aurora kinase A (Homo sapiens, UniProt O14965); assay type: functional;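 further: value from the Navigating the Kinome kinase panel profiling, panel entry STK6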
T6 sequence (O14965 whole entry): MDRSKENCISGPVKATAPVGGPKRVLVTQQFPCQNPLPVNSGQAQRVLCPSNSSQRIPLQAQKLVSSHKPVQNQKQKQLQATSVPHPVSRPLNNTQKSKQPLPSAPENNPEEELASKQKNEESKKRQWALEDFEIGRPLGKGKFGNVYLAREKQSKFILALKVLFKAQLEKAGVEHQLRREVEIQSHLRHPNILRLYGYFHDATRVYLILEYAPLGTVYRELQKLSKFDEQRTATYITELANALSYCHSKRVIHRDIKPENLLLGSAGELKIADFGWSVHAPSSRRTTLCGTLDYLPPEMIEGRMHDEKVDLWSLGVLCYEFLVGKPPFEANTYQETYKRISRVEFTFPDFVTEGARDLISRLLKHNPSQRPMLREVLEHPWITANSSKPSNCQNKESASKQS

Aurora kinase B = Aurora kinase B (Homo sapiens, UniProt Q96GD4); assay type: functional
[5] = biological target: Vascular endothelial growth factor receptor 2 (Homo sapiens, UniProt P35968); assay type: functional
HEK293 [6] = assay: cells; conditions: Homo sapiens
HEK293 [7] = assay: cells; conditions: Homo sapiens; remark: listed apart in the source
[8] = ZM109 Env clade C HIV-1 fusion inhibitors, dose response, HeLa effector, CEM target cells, luciferase, cherry-pick (AID 652058); assay type: functional, cell-based
[9] = HepG2 cell cytotoxicity, dose response, cytotoxicity control for Shn3 inhibitor project, CellTiter-Glo, cherry-picked (AID 624134); assay type: functional, cell-based
[10] = CEM21 lymphoblast cell cytotoxicity, dose response, cytotoxicity control for viral fusion inhibitor project, CellTiter-Glo luminescence, cherry-picked (AID 652042); assay type: functional, cell-based;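 further: potency for signal decrease meaning cytotoxicity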
[11] = inhibitors of clade B AD8 Env fusion, dose response, cell-based, cherry-pick (AID 652062); assay type: functional;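 further: luciferase signal from cell-cell fusion driven by HIV-1 clade B AD8 Env; potency is for inhibitors of fusion seen as a drop in luminescence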
[12] = inhibitors of HIV Env-driven cell fusion, dose response, cherry-pick (AID 652057); assay type: functional, cell-based
[13] = off-target signal loss in HeLa-CEM21 co-culture – HeLa F-luc CTL cells, cherry-picked, counter-screen for HIV-1 Env fusion inhibitor project, dose response (AID 652040); assay type: functional, cell-based;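 further: potency for signal decrease marking cytotoxic or nonspecific inhibition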
[14] = Shn3 3'UTR reporter inhibitors, dose response, cell-based, Clone20 osteoblasts, firefly luciferase, cherry-picked (AID 624132); assay type: functional;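 further: firefly luciferase luminescence from reporter carrying the Shn3 3'UTR in osteoblasts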
[15] = control 3'UTR Renilla luciferase suppression, dose response, counter-screen for Shn3 inhibitor project, cell-based, Clone20-Shn3RL, cherry-picked (AID 624133); assay type: functional

Chain of Phospholipase D2 (O14939 whole entry): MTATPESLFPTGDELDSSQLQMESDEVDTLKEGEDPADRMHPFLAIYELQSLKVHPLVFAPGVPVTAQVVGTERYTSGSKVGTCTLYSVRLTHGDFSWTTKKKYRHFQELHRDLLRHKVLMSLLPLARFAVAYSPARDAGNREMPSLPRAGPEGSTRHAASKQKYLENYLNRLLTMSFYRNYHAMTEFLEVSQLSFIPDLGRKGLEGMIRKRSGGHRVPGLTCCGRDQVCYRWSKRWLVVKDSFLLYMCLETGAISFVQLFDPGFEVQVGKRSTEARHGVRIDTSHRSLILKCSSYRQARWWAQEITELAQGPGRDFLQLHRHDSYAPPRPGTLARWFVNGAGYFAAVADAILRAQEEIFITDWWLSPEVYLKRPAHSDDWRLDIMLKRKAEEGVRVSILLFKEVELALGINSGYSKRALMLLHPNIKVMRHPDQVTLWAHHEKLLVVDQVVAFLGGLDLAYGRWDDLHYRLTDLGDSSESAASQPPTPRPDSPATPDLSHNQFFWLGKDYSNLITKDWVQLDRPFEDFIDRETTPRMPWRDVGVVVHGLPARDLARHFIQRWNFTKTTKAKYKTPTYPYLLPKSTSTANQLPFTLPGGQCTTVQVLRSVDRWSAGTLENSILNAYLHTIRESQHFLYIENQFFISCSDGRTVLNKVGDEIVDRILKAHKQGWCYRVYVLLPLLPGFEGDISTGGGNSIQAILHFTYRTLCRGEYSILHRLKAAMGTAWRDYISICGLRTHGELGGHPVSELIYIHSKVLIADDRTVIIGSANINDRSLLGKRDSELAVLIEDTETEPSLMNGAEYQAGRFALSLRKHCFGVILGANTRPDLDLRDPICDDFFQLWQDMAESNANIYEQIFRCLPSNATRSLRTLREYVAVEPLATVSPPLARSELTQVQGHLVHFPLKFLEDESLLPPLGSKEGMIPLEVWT
Chain of Vascular endothelial growth factor receptor 2 (P35968 whole entry): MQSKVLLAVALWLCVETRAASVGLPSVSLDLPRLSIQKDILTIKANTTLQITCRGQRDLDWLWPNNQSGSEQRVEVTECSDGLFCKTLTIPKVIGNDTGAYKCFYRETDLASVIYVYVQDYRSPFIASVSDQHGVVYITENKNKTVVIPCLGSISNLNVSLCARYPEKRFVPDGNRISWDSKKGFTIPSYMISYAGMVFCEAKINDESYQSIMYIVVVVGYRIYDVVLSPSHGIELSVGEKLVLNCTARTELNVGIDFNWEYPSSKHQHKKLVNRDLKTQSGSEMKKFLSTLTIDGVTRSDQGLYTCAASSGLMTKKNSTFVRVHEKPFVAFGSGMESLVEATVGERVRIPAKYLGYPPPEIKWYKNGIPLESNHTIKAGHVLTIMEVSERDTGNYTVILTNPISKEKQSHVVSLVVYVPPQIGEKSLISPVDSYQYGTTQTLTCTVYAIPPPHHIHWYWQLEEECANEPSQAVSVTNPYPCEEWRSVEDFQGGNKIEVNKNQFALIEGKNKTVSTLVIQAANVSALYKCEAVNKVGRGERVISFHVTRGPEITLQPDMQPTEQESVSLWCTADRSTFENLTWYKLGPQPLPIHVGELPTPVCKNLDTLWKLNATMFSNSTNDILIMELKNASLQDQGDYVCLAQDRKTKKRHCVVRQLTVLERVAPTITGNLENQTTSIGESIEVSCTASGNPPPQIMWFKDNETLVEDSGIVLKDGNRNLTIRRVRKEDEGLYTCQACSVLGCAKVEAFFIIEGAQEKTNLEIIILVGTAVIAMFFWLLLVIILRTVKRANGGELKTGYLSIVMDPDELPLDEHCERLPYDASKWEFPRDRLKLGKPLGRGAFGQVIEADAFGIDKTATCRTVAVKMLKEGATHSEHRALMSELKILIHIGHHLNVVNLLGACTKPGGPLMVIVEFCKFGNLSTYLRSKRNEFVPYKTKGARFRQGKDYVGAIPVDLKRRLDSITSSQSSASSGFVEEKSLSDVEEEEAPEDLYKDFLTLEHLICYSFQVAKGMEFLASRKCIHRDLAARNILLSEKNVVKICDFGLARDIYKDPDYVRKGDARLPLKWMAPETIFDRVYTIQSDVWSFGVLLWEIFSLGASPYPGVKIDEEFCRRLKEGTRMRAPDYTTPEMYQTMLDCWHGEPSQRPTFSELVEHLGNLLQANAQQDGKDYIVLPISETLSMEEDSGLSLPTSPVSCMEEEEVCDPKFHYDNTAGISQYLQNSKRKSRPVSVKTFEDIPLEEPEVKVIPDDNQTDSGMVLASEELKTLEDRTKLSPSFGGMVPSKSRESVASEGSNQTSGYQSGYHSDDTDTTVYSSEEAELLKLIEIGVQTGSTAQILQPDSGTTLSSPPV
Chain of Aurora kinase B (Q96GD4 whole entry): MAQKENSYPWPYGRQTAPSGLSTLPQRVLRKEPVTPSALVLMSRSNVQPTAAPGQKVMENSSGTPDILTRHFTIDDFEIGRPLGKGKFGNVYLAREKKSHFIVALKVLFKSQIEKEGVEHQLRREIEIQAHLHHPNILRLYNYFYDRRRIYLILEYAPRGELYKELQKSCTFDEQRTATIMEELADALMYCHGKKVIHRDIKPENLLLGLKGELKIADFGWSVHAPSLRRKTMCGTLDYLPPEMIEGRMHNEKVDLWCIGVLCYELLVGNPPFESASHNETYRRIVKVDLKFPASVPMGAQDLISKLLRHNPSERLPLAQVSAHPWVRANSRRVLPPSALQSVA

C[C@H](CN1CCC2(CC1)C(=O)NCN2c1ccccc1)NC(=O)c1cc2cc(F)ccc2[nH]1
active: IC50 (Phospholipase D1) 0.002 µM | IC50 (Phospholipase D2) 0.023 µM

COc1ccc(-c2cc(O)cc(O)c2)cc1
active: EC50 (H4) 4.12 µM | IC50 (Caspase-3) 30.9 µM | EC50 [1] 3.8 µM | IC50 [2] 48 µM | IC50 [3] 41.1 µM | IC50 [4] 12.3 µM

CCCCS(=O)(=O)Nc1ccc2c(c1)C(=NO)c1ccccc1-2
active: Ki (Aurora kinase A) 1.26 µM | Ki (Aurora kinase B) 0.01 µM | Ki [5] 1.58 µM

CCCCC1(CC(=O)OCC)C(=O)N(c2ccccc2)N(c2ccccc2)C1=O
inactive: EC50 (HEK293 [6]) > 59.6 µM | EC50 (HEK293 [7]) > 59.6 µM

COc1ccc(COC(=O)c2c(C)nn(-c3ccccc3)c2Cl)cc1
active: IC50 (Caspase-3) 40.2 µM | IC50 [2] 98.1 µM | IC50 [3] 73.3 µM | IC50 [4] 19.4 µM

NC(CCc1ccccc1)c1csc(NC(=O)Nc2ccccc2Oc2ccccc2)n1 (stereo unspecified)
active: AC50 [8] 3.38 µM | AC50 [9] 13.5 µM | AC50 [10] 11.4 µM | AC50 [11] 4.98 µM | AC50 [12] 0.824 µM | AC50 [13] 1.65 µM | AC50 [14] 7.18 µM | AC50 [15] 13.6 µM
inactive: EC50 (HEK293 [6]) > 59.6 µM | EC50 (HEK293 [7]) > 59.6 µM

C[C@@H](CN1CCC2(CC1)C(=O)NCN2c1ccccc1)NC(=O)[C@@H]1C[C@H]1c1ccccc1
active: IC50 (Phospholipase D1) 2.56 µM | IC50 (Phospholipase D2) 20 µM

CN(CCN1CCC(n2c(=O)[nH]c3ccccc32)CC1)C(=O)c1ccc2ccccc2c1
active: IC50 (Phospholipase D1) 2.06 µM | IC50 (Phospholipase D2) 20 µM

From ChEMBL document CHEMBL1201862, “PubChem BioAssay data set” (2004)
